Reference: patent US12138250B2, “Formulations of 6-(2-hydroxy-2-methylpropoxy)-4-(6-(6-((6-methoxypyridin-3-yl)methyl)-3,6-diazabicyclo[3.1.1]heptan-3-yl)pyridin-3-yl)pyrazolo[1,5-a]pyridine-3-carbonitrile” (Loxo Oncology, Inc., priority 2017, dated 2024)
Where two headings read alike, the source gives them in different places. One block for each compound: values may come before it.

What was measured:
[1] = Gravimetric Vapor Sorption (GVS); assay type: physicochemical
Experimental: Approximately 10-20 mg of sample was placed into a mesh vapor sorption balance pan and loaded into an IGASorp Moisture Sorption Analyzer balance by Hiden Analytical. The sample was subjected to a ramping profile from 40-90% RH at 10% increments, maintaining the sample at each step until a stable weight had been achieved (98% step completion). After completion of the sorption cycle, the sample was dried using the same procedure to 0% RH, and finally taken back to the starting point of 40% RH. The weight change during the sorption/desorption cycles were plotted, allowing for the hygroscopic nature of the sample to be determined.

[2] = salt screen, succinic acid
[3] = Dynamic Vapor Sorption (DVS); assay type: physicochemical
Experimental: Approximately 10 mg of sample was placed into a mesh vapor sorption balance pan and loaded into a DVS-1 dynamic vapor sorption balance by Surface Measurement Systems. The sample was subjected to a ramping profile from 40-90% relative humidity (RH) at 10% increments, maintaining the sample at each step until a stable weight had been achieved (99.5% step completion). After completion of the sorption cycle, the sample was dried using the same procedure to 0% RH and then a second sorption cycle back to 40% RH. The weight change during the sorption/desorption cycles were plotted, allowing for the hygroscopic nature of the sample to be determined. XRPD analysis was then carried out on any solid retained.

[4] = Solvent solubility screen in 32 solvent systems; assay type: physicochemical; details: for solubility: 40 °C, thermodynamic from solid, read-out: Approximate solubility
Experimental: A solvent solubility screen was conducted in 32 solvent systems as follows. […] Between each addition, the mixture was checked for dissolution. If no dissolution was apparent, the mixture was heated to around 40° C. and checked again. This procedure was continued until dissolution was observed or until 100 volumes of solvent had been added. Undissolved material from the solubility screen was isolated and analyzed by XRPD.

[5] = Overnight storage at 40° C. and 75% RH with XRPD reanalysis (salt screen, temperature cycling polymorph screen); assay type: physicochemical; details: for Post-temperature cycling (XRPD form): analyzed wet; for Post-stability tests (XRPD form): stored at 40° C. and 75% RH overnight
Experimental: Each mixture was filtered and isolated solids were analyzed (wet) by XRPD to determine crystallinity and form. Samples in which solid was not observed were stored uncapped to allow solvent evaporation. […] The samples were then reanalyzed by XRPD to determine any changes in form or crystallinity. The observations and results, including the different diffractogram patterns observed during the screen, are shown in Tables 8-32, below, and FIGS. 6A-6B through 29A-29B. After temperature cycling, each mixture was filtered and isolated solids were analyzed (wet) by XRPD to determine crystallinity and form. The samples were then stored at 40° C. and 75% RH overnight and reanalyzed by XRPD to determine any changes in form or crystallinity. Results are shown in Table 39, below, and FIGS. 40A-40D.

form or crystallinity by XRPD post-GVS analysis [1]: No change in form
hygroscopicity by GVS [1]: moderately hygroscopic
weight increase by GVS ([1]; at 90% RH): 2.6%
SMILES: COc1ccc(CN2C3CC2CN(c2ccc(-c4cc(OCC(C)(C)O)cn5ncc(C#N)c45)cn2)C3)cn1 [Form 1]

XRPD post-cycling ([2]; IPA/water (10%)): Form 8
XRPD post-cycling ([2]; MeCN/water (20%)): Form 8
XRPD post-stability ([2]; MeCN/water (20%), overnight 40° C. and 75% RH): Form 8
SMILES: O=C(O)CCC(=O)O [Succinic acid]

change in form post-DVS ([3]; XRPD after DVS): No change in Form
weight increase by DVS ([3]; at 90% RH, material prepared as in Example 1, identified as Form 1): around 3.6%
hygroscopicity by DVS ([3]; material prepared as in Example 1, identified as Form 1): moderately hygroscopic
solubility ([4]; aqueous with cosolvent or surfactant or cyclodextrin, solvent Acetone:Water (50%)): < 5000 µg/mL
solubility ([4]; organic solvent or mixture, solvent 1,4-Dioxane, (P) = partial solubility at 100 volumes): < 5000 µg/mL
solubility ([4]; organic solvent or mixture, solvent 1-Butanol): < 5000 µg/mL
solubility ([4]; organic solvent or mixture, solvent 1-Propanol): < 5000 µg/mL
solubility ([4]; organic solvent or mixture, solvent 2-Ethoxyethanol, (P) = partial solubility at 100 volumes): < 5000 µg/mL
solubility ([4]; organic solvent or mixture, solvent 2-Methyl THF, (P) = partial solubility at 100 volumes): < 5000 µg/mL
solubility ([4]; organic solvent or mixture, solvent Acetone): < 5000 µg/mL
solubility ([4]; organic solvent or mixture, solvent Anisole, (P) = partial solubility at 100 volumes): < 5000 µg/mL
solubility ([4]; organic solvent or mixture, solvent CHCl3, (P) = partial solubility at 100 volumes): < 5000 µg/mL
solubility ([4]; organic solvent or mixture, solvent Cyclohexane): < 5000 µg/mL
solubility ([4]; organic solvent or mixture, solvent Cyclohexanone, (P) = partial solubility at 100 volumes): < 5000 µg/mL
solubility ([4]; organic solvent or mixture, solvent DCM, (P) = partial solubility at 100 volumes): < 5000 µg/mL
solubility ([4]; organic solvent or mixture, solvent EtOAc): < 5000 µg/mL
solubility ([4]; organic solvent or mixture, solvent Ethanol): < 5000 µg/mL
solubility ([4]; organic solvent or mixture, solvent IPA): < 5000 µg/mL
solubility ([4]; organic solvent or mixture, solvent MEK): < 5000 µg/mL
solubility ([4]; organic solvent or mixture, solvent MIBK): < 5000 µg/mL
solubility ([4]; organic solvent or mixture, solvent MeOAc): < 5000 µg/mL
solubility ([4]; organic solvent or mixture, solvent Nitromethane, (P) = partial solubility at 100 volumes): < 5000 µg/mL
solubility ([4]; organic solvent or mixture, solvent THF, (P) = partial solubility at 100 volumes): < 5000 µg/mL
solubility ([4]; solvent Water): < 5000 µg/mL
solubility in solvent solubility screen ([4]; DMSO, NMP, and THF/water (1%)): moderate solubility
solubility in solvent solubility screen ([4]; majority of solvent systems investigated): low solubility
Post-temperature cycling (XRPD form) ([5]; slurry in 1,4-Dioxane, 40° C./RT cycles 72 hours): Weak diffraction
Post-temperature cycling (XRPD form) ([5]; slurry in 1-Butanol, 40° C./RT cycles 72 hours): Weak diffraction
Post-temperature cycling (XRPD form) ([5]; slurry in 1-Propanol, 40° C./RT cycles 72 hours): Form 8
Post-temperature cycling (XRPD form) ([5]; slurry in 2-Ethoxyethanol, 40° C./RT cycles 72 hours): Weak diffraction
Post-temperature cycling (XRPD form) ([5]; slurry in 2-Methyl THF, 40° C./RT cycles 72 hours): Weak diffraction
Post-temperature cycling (XRPD form) ([5]; slurry in Acetone, 40° C./RT cycles 72 hours): Weak diffraction
Post-temperature cycling (XRPD form) ([5]; slurry in Acetone:Water (50%), 40° C./RT cycles 72 hours): Form 1
Post-temperature cycling (XRPD form) ([5]; slurry in Anisole, 40° C./RT cycles 72 hours): Form 1
Post-temperature cycling (XRPD form) ([5]; slurry in CHCl3, 40° C./RT cycles 72 hours): Amorphous
Post-temperature cycling (XRPD form) ([5]; slurry in Cyclohexane, 40° C./RT cycles 72 hours): Form 1
Post-temperature cycling (XRPD form) ([5]; slurry in Cyclohexanone, 40° C./RT cycles 72 hours): Weak diffraction
Post-temperature cycling (XRPD form) ([5]; slurry in DCM, 40° C./RT cycles 72 hours): Amorphous
Post-temperature cycling (XRPD form) ([5]; slurry in DMSO, 40° C./RT cycles 72 hours): Form 1
Post-temperature cycling (XRPD form) ([5]; slurry in EtOAc, 40° C./RT cycles 72 hours): Form 1
Post-temperature cycling (XRPD form) ([5]; slurry in Ethanol, 40° C./RT cycles 72 hours): Weak diffraction
Post-temperature cycling (XRPD form) ([5]; slurry in IPA, 40° C./RT cycles 72 hours): Form 8
Post-temperature cycling (XRPD form) ([5]; slurry in MEK, 40° C./RT cycles 72 hours): Weak diffraction
Post-temperature cycling (XRPD form) ([5]; slurry in MIBK, 40° C./RT cycles 72 hours): Form 1
Post-temperature cycling (XRPD form) ([5]; slurry in MeCN:Water (20%), 40° C./RT cycles 72 hours): Weak diffraction
Post-temperature cycling (XRPD form) ([5]; slurry in MeOAc, 40° C./RT cycles 72 hours): Weak diffraction
Post-temperature cycling (XRPD form) ([5]; slurry in Nitromethane, 40° C./RT cycles 72 hours): Weak diffraction
Post-temperature cycling (XRPD form) ([5]; slurry in THF, 40° C./RT cycles 72 hours): Weak diffraction
Post-temperature cycling (XRPD form) ([5]; slurry in THF:Water (1%), 40° C./RT cycles 72 hours): Weak diffraction
Post-temperature cycling (XRPD form) ([5]; slurry in Water, 40° C./RT cycles 72 hours): Form 1
Post-stability tests (XRPD form) ([5]; solid from 1,4-Dioxane): Form 1
Post-stability tests (XRPD form) ([5]; solid from 1-Butanol): Form 1
Post-stability tests (XRPD form) ([5]; solid from 1-Propanol): Form 1
Post-stability tests (XRPD form) ([5]; solid from 2-Ethoxyethanol): Form 1
Post-stability tests (XRPD form) ([5]; solid from 2-Methyl THF): Form 1
Post-stability tests (XRPD form) ([5]; solid from Acetone:Water (50%)): Form 1
Post-stability tests (XRPD form) ([5]; solid from Acetone): Form 1
Post-stability tests (XRPD form) ([5]; solid from Anisole): Form 1
Post-stability tests (XRPD form) ([5]; solid from CHCl3): Form 1
Post-stability tests (XRPD form) ([5]; solid from Cyclohexane): Form 1
Post-stability tests (XRPD form) ([5]; solid from Cyclohexanone): Form 1
Post-stability tests (XRPD form) ([5]; solid from DCM): Form 1
Post-stability tests (XRPD form) ([5]; solid from DMSO): Form 1
Post-stability tests (XRPD form) ([5]; solid from EtOAc): Form 1
Post-stability tests (XRPD form) ([5]; solid from Ethanol): Form 1
Post-stability tests (XRPD form) ([5]; solid from IPA): Form 1
Post-stability tests (XRPD form) ([5]; solid from MEK): Form 1
Post-stability tests (XRPD form) ([5]; solid from MIBK): Form 1
Post-stability tests (XRPD form) ([5]; solid from MeCN:Water (20%)): Form 1
Post-stability tests (XRPD form) ([5]; solid from MeOAc): Form 1
Post-stability tests (XRPD form) ([5]; solid from Nitromethane): Form 1
Post-stability tests (XRPD form) ([5]; solid from THF): Form 1
Post-stability tests (XRPD form) ([5]; solid from Water): Form 1
SMILES: COc1ccc(CN2C3CC2CN(c2ccc(-c4cc(OCC(C)(C)O)cn5ncc(C#N)c45)cn2)C3)cn1 [compound of Formula (I), 6-(2-hydroxy-2-methylpropoxy)-4-(6-(6-((6-methoxypyridin-3-yl)methyl)-3,6-diazabicyclo[3.1.1]heptan-3-yl)pyridin-3-yl)pyrazolo[1,5-a]pyridine-3-carbonitrile]
